pKi: −log10 of the molar value. Each block holds one compound with its values, some of them ahead of it.
Assays:
Carbonic anhydrase 9 = Carbonic anhydrase 9 (Homo sapiens, UniProt Q16790)
Description: Inhibition of human recombinant CA9 after 15 mins by CO2 hydration stopped flow assay

Mus musculus [1] = assay: Anticonvulsant activity in OF1 mouse at 50 mg/kg, ip after 2 hrs by MES test; type: functional; conditions: route intraperitoneal
Mus musculus [2] = assay: Anticonvulsant activity in OF1 mouse at 30 mg/kg, ip after 2 hrs by MES test; type: functional; conditions: route intraperitoneal

pKi (Carbonic anhydrase 9): 7.09
SMILES: CC1(C)O[C@@H]2[C@@H](CO[C@@]3(CNC(=S)Nc4ccc(S(N)(=O)=O)cc4)OC(C)(C)O[C@@H]23)O1
Activity (Mus musculus [1]): 0%

pKi (Carbonic anhydrase 9): 6.96
SMILES: CC1(C)O[C@@H]2[C@@H](CO[C@@]3(CNC(=S)Nc4ccc(S(N)(=O)=O)cc4F)OC(C)(C)O[C@@H]23)O1
Activity (Mus musculus [1]): 87.5%

pKi (Carbonic anhydrase 9): 7.96
SMILES: CC1(C)O[C@@H]2[C@@H](CO[C@@]3(CNC(=S)Nc4ccc(S(=O)(=O)NCc5ccc(S(N)(=O)=O)cc5)cc4F)OC(C)(C)O[C@@H]23)O1
Activity (Mus musculus [1]): 20%

pKi (Carbonic anhydrase 9): 7.12
SMILES: CC1(C)O[C@@H]2[C@@H](CO[C@@]3(CNC(=S)Nc4ccc(S(=O)(=O)Nc5nnc(S(N)(=O)=O)s5)cc4F)OC(C)(C)O[C@@H]23)O1
Activity (Mus musculus [1]): 0%

More lines, now with the values behind:

SMILES: CC1(C)O[C@@H]2[C@@H](CO[C@@]3(CNC(=S)Nc4cccc(S(N)(=O)=O)c4)OC(C)(C)O[C@@H]23)O1
pKi (Carbonic anhydrase 9): 5.35
Activity (Mus musculus [1]): 0%

SMILES: CC1(C)O[C@@H]2[C@@H](CO[C@@]3(CNC(=S)Nc4ccc(S(N)(=O)=O)cc4Cl)OC(C)(C)O[C@@H]23)O1
pKi (Carbonic anhydrase 9): 6.87
Activity (Mus musculus [1]): 0%

SMILES: CC1(C)O[C@@H]2[C@@H](CO[C@@]3(CNC(=S)NCCc4ccc(S(N)(=O)=O)cc4)OC(C)(C)O[C@@H]23)O1
Activity (Mus musculus [1]): 0%

SMILES: NC(=O)N1c2ccccc2C=Cc2ccccc21 [CARBAMAZEPINE]
Activity (Mus musculus [2]): 100%

SMILES: O=C1NC(=O)C(c2ccccc2)(c2ccccc2)N1 [PHENYTOIN]
Activity (Mus musculus [2]): 100%

SMILES: CC1(C)O[C@@H]2[C@@H](CO[C@@]3(COS(N)(=O)=O)OC(C)(C)O[C@@H]23)O1 [TOPIRAMATE]
Activity (Mus musculus [1]): 68.75%

— ChEMBL document CHEMBL1147915, “Carbonic anhydrase inhibitors. Inhibition of isoforms I, II, IV, VA, VII, IX, and XIV with sulfonamides incorporating fructopyranose-thioureido tails” (Bioorg Med Chem Lett, 2007)
